Structures can show the parent of a compound that is named as a salt. Where two headings read alike, the source gives them in different places.
How the values were obtained:
[1] = system: KB (RFC/FRα/PCFT); assay: Growth inhibition of KB tumor cells; type: cell-based, human
Procedure: Cell proliferation was assayed with CellTiter-Blue™ with a fluorescent plate reader.

[2] = system: PC43-10 (RFC); assay: Proliferation inhibition, RFC-expressing PC43-10 cells; type: cell-based, Chinese hamster; details: Table 11
Source text: (§1) AGF215, AGF234 and AGF263 were compared to AGF23 as inhibitors of proliferation of engineered Chinese hamster ovary (CHO) cells expressing human PCFT (R2/PCFT4), FRα (RT16), or RFC (PC43-10).

[3] = system: RT16 (FRα); assay: Proliferation inhibition, FRα-expressing RT16 cells; type: cell-based, Chinese hamster
Source text: as §1

[4] = system: A-10 cells; assay: Microtubule depolymerization, cell-based phenotypic assay in A-10 cells
[5] = system: MDA-MB-435 cancer cells; assay: Antiproliferative effect in MDA-MB-435 cancer cells (SRB assay); type: cell-based
[6] = system: Parental HeLa; assay: Antiproliferative activity, parental HeLa; type: cell-based; details: Homo sapiens, Table 7, read-out: IC50 ± SD Parental HeLa
Source text: (§2) Another clinically relevant drug resistance mechanism of tubulin-targeting agents is the overexpression of the βIII isotype of tubulin.

[7] = system: Pgp expressing SK-OV-3 MDR1-6-6; assay: Antiproliferative activity, Pgp expressing SK-OV-3 MDR1-6-6; type: cell-based; details: Homo sapiens, SK-OV-3; Table 6; read-out: IC50 ± SD Pgp expressing SK-OV-3 MDR1-6-6
[8] = system: β-III overexpressing HeLa; assay: Antiproliferative activity, β-III overexpressing HeLa; type: cell-based; details: Homo sapiens, HeLa; Table 7; read-out: IC50 ± SD β-III overexpressing HeLa
Source text: as §2

[9] = system: Parental SK-OV-3; assay: Antiproliferative activity, parental SK-OV-3; type: cell-based; details: Homo sapiens, Table 6, read-out: IC50 ± SD Parental SK-OV-3
[10] = molecular target: PDGFR-β (Homo sapiens, UniProt P09619); assay: Kinase inhibition, whole-cell assay, PDGFR-β; type: cell-based
Sequence of PDGFR-β (P09619 33-1106, species assumed): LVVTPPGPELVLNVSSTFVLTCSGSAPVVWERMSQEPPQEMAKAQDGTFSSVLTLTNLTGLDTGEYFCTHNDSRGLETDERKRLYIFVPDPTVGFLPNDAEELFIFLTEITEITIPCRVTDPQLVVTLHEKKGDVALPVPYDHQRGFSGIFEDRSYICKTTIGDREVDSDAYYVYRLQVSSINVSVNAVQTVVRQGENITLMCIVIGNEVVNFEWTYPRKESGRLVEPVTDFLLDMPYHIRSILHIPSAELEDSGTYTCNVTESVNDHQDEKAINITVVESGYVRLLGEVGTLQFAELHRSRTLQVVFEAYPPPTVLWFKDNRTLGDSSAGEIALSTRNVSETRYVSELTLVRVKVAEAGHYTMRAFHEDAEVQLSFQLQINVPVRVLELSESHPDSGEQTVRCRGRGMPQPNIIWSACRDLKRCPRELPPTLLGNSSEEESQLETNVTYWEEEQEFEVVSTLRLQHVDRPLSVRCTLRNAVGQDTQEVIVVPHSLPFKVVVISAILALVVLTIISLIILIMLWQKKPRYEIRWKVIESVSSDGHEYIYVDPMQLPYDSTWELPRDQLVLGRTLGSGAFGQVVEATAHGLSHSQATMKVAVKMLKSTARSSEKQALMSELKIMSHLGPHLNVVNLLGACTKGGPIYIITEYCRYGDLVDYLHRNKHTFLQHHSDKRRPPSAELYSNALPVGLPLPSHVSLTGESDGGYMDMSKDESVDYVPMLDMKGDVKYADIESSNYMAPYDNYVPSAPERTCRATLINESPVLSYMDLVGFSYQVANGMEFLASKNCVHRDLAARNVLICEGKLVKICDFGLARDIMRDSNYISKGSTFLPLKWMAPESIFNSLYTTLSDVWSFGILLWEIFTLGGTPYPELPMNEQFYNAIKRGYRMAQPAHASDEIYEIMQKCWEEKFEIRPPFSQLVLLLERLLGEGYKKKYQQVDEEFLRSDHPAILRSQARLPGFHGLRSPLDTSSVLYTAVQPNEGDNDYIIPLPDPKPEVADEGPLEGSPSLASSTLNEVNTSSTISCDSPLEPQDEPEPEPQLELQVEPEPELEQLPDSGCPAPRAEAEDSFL

[11] = system: MDA-MB-435 xenograft; assay: MDA-MB-435 xenograft trial; details: IP 75 mg/kg; for adverse effects / toxicity in xenograft trial: cumulative dosing
[12] = molecular target: EGFR (Homo sapiens, UniProt P00533); assay: Kinase inhibition, whole-cell assay, EGFR; type: cell-based
Sequence of EGFR (P00533 25-1210, species assumed): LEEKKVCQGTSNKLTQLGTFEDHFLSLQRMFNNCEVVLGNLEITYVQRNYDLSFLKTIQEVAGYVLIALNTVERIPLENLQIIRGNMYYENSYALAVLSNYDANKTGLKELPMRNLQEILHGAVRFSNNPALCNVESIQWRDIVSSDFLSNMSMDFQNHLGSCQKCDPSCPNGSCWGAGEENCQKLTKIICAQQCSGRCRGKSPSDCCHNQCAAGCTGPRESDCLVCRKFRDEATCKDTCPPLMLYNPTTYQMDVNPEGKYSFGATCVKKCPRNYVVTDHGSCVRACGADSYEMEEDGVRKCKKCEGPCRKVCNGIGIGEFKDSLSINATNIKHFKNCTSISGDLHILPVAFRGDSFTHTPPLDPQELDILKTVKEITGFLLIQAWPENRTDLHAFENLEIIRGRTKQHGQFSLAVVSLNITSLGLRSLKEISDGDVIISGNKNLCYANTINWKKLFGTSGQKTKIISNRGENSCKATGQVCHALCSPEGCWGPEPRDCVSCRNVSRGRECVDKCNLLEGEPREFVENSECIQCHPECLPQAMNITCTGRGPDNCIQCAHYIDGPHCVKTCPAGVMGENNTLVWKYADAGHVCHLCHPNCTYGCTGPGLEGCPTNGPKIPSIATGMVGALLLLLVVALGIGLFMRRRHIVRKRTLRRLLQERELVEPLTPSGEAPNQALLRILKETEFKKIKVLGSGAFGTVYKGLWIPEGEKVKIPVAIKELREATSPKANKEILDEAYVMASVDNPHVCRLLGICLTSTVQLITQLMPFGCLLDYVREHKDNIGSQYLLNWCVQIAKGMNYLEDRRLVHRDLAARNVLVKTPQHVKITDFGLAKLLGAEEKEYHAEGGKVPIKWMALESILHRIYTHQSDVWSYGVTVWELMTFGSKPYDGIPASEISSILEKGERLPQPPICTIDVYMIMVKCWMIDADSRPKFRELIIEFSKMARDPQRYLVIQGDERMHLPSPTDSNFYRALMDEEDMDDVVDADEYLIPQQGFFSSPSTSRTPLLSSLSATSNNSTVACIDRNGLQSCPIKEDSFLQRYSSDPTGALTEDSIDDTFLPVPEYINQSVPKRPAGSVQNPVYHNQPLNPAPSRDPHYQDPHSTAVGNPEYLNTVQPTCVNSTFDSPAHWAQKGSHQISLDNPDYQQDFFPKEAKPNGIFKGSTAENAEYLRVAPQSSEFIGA

[13] = system: A431; assay: A431 cytotoxicity; details: Homo sapiens
[14] = Table 11, read-out: IC50 RFC/FRα/PCFT KB
[15] = with folic acid (+FA), read-out: IC50 RFC/FRα/PCFT KB (+FA)
[16] = Table 3, read-out: Microtubule depolymerization EC50
[17] = Table 3, read-out: MDA-MB-435 IC50
[18] = Rattus norvegicus, A10, read-out: EC50 in A-10 cells (Concentration that causes 50% tubulin loss in A-10 cells), Table 4, Section II compounds
[19] = Homo sapiens, MDA-MB-435, Table 4, Section II compounds, SRB assay, read-out: IC50 ± SD (MDA-MB-435) Cancer cells

Cc1nc2ccc3ccc(CNc4ccc5c(c4)CN([C@@H](CCC(=O)O)C(=O)O)C5=O)cc3c2c(=O)[nH]1 [GW1843U89]
IC50 [1, 14]: 5.8 nM | IC50 [1, 15]: 32 nM

Nc1nc(N)c2nc(CNc3ccc(C(=O)N[C@@H](CCCNC(=O)c4ccccc4C(=O)O)C(=O)O)cc3)cnc2n1 [PT523]
IC50 [2]: 1.28 nM | IC50 ([3]; Table 11, read-out: IC50 FRα RT16): 409 nM | IC50 ([3]; with folic acid (+FA), read-out: IC50 FRα RT16 (+FA)): > 1000 nM

CSc1ccc(N(C)c2nc(C)nc3ccn(C)c23)cc1 [5•HCl]
EC50 [4, 16]: 23 nM | IC50 [5, 17]: 6.2 ± 1 nM

COc1ccc(N(C)c2nc(C)nc3c2CCC3)cc1 [Compound 1]
EC50 [4, 18]: 25.9 nM | IC50 [6]: 12 ± 1.2 nM | IC50 [7]: 16.4 ± 0.4 nM | IC50 [5, 19]: 7 ± 0.7 nM | IC50 [8]: 9.6 ± 0.9 nM | IC50 [9]: 11.3 ± 0.2 nM

CSc1ccc(N(C)c2nc(C)nc3c2CC(C)C3)cc1 (centres unmarked) [Compound 2]
EC50 [4, 18]: 116 nM | IC50 [6]: 19.6 ± 2 nM | IC50 [7]: 22.7 ± 2.7 nM | IC50 [5, 19]: 15 ± 6.5 nM | IC50 [8]: 14.8 ± 1.5 nM | IC50 [9]: 21.2 ± 4 nM

COc1ccc(N(C)c2nc(C)nc3ccn(C)c23)cc1 [2•HCl]
IC50 ([10]; Table 1, IC50 ± SD, read-out: Kinase inhibition IC50 [whole-cell assays] PDGFR-β): 67 ± 10.2 nM | IC50 ([10]; Table 3b, unit inferred, read-out: PDGFR kinase inhibition): > 200 nM | final average tumor mass compared to the vehicle ([11]; Day 15): statistically significant (p<0.001) lower final average tumor mass | mouse weight change ([11]; compared to the vehicle): recoverable weight loss | adverse effects / toxicity in xenograft trial ([11]; 75 mg/kg): noticeable adverse effects on the central nervous system | adverse effects / toxicity in xenograft trial ([11]; listed as AG 141, 75 mg/kg): severe seizures in two mice | adverse effects / toxicity in xenograft trial ([11]; listed as AG141, 75 mg/kg): unacceptable cumulative CNS toxicities | tumor growth during the trial ([11]; nude mice): inhibited tumor growth | IC50 ([12]; Table 1, IC50 ± SD, read-out: Kinase inhibition IC50 [whole-cell assays] EGFR): 25.2 ± 0.41 nM | IC50 ([12]; Table 3b, unit inferred, read-out: EGFR kinase inhibition): 89.3 ± 9.2 nM | EC50 ([4]; Rattus norvegicus, A10, read-out: EC50 for Microtubule Depolymerization in A · 10 Cells): 7.4 nM | EC50 ([4]; Rattus norvegicus, A10, read-out: Microtubule depolymerization EC50): 7.4 nM | IC50 ([13]; A-431, read-out: A431 cytotoxicity, Table 1, IC50 ± SD): 8.8 ± 0.9 nM | IC50 ([13]; A-431, read-out: A431 cytotoxicity, Table 3b, unit inferred): 107 ± 18 nM | IC50 ([5]; Homo sapiens, MDA-MB-435, read-out: MDA-MB-435 IC50): 4.3 ± 0.3 nM | IC50 ([5]; Homo sapiens, read-out: IC50 ± SD in MDA-435 Cells): 4.3 ± 0.3 nM

COc1ccc([C@H](C)N(C)c2nc(C)nc3c2CCC3)cc1 [Compound 10]
EC50 [4, 18]: > 10000 nM

CN(c1ccc(OC(F)(F)F)cc1)c1nc(Cl)nc2ccn(C)c12 [Table 3a 29]
EC50 ([4]; Rattus norvegicus, A10, Table 3a, unit inferred, read-out: EC50 for Microtubule Depolymerization in A · 10 Cells): 139 nM | IC50 ([5]; Homo sapiens, Table 3a, unit inferred, read-out: IC50 ± SD in MDA-435 Cells): 49.3 ± 1.1 nM

Nc1nc2[nH]c(CCCSc3ccc(C(=O)N[C@@H](CCC(=O)O)C(=O)O)cc3)cc2c(=O)[nH]1 [AGF263]
IC50 [2]: > 1000 nM | IC50 RFC PC43-10 [2]: inactive | IC50 [1, 14]: 0.22 nM | IC50 [1, 15]: 600 nM

Cc1nc2c(c(N(C)c3ccc(S(C)(=O)=O)cc3)n1)CCC2 [Compd 5]
EC50 [4, 18]: > 10000 nM

COc1ccc(N(C)c2nc(C)nc3ccn(C(C)C)c23)cc1.Cl [AG174]
antitumor effects ([11]; MDA-MB-435 xenograft): highly statistically significant (p<0.001) antitumor effects

Cc1nc2c(c(N(C)c3ccc4c(c3)CCO4)n1)CCC2 [Compound 6]
IC50 [6]: 16 ± 1 nM | IC50 [7]: 29.8 ± 5.6 nM | IC50 [8]: 15 ± 1 nM | IC50 [9]: 18.7 ± 1.2 nM

CSc1ccc(N(C)c2nc(C)nc3cc[nH]c23)cc1 [4•HCl]
EC50 [4, 16]: 1100 nM | IC50 [5, 17]: 49.9 ± 10.4 nM

COc1cccc2cc(N(C)c3nc(Cl)nc4ccn(C)c34)ccc12 [Table 3a 15]
EC50 ([4]; Table 3a, unit inferred, read-out: EC50 for Microtubule Depolymerization in A · 10 Cells): 50 nM | IC50 ([5]; Table 3a, unit inferred, read-out: IC50 ± SD in MDA-435 Cells): 22.6 nM

COc1ccc([C@@H](C)N(C)c2nc(C)nc3c2CCC3)cc1 [Compound 11]
EC50 [4, 18]: > 10000 nM

Source: patent US10239880B2, “Cyclopenta[d]pyrimidines and substituted cyclopenta[d]pyrimidines as antitubulin and microtubule targeting agents, monocyclic pyrimidines as tubulin inhibitors, and pyrrolopyrimidines as targeted antifolates and tubulin and multiple receptor tyrosine kinase inhibition and antitumor agents” (Duquesne University of the Holy Spirit, priority 2015, dated 2019)
